The test system of the assay is vitiligo. The experiment in a line: Clinical study of treatment of vitiligo: central read facial-VASI (primary efficacy endpoint). The format is in vivo, human. Particulars: for Placebo-adjusted LS mean CFB (SE); % CFB in Central F-VASI at Week 24: oral once daily. The procedure: Subjects take the medication set forth herein orally once daily, and typically swallow the tablets whole with approximately one cup of ambient temperature water, without any manipulation or chewing. Dosing regimes include induction dosing of 100 or 200 mg and maintenance dosing of 50 mg, or a 24-week Treatment Period in which participants were treated with ritlecitinib 50 mg, 30 mg, or 10 mg. The induction period is an initial period of treatment of 4 weeks in the initial clinical trial. The maintenance period is 20 weeks Tablets may be taken with or without food. Subject response is evaluated at regular intervals after administration. The Vitiligo Area Scoring Index (VASI) is a validated quantitative scale, initially developed to measure the response of vitiligo to nbUVB treatment, but has since been used to evaluate various therapies for vitiligo. Clinical evaluations of vitiligo in this study include VASI, central read and site assessment of facial-VASI, static Investigator Global Assessment (sIGA), Body Surface Area (BSA) involvement, Vitiligo Extent Score (VES), and dermoscopy. Self-Assessment VES (SA-VES), Vitiligo Specific Quality of Life (VitiQoL), Dermatology Life Quality Index (DLQL), Hospital Anxiety and Depression Scale (HADS), Patient Global Impression of Change Vitiligo (PGIC-V), EQ-5D-5L, Healthcare Resource Utilization (HCRU) and Vitiligo Noticeability Scale (VNS). (b) Facial Vitiligo Area Scoring Index (Facial-VASI)—Central Read The central read facial-VASI are assessed based on the facial photographs taken at the site by a central reader. Clinical Trial Imaging Endpoint Process Standards—Guidance for Industry (April 2018). The central read facial-VASI is calculated using a formula that includes contribution of affected facial surface areas showing all six (6) different depigmentation rates (0.1, 0.25, 0.5, 0.75, 0.9 and 1) with a modified method described by Hamzavi et al. Hamzavi, I., […] The calculation of % affected total body surface area (BSA) is shown below: • Affected Facial Surface Area×4=% Affected Total Body Surface Area. Face is defined as the area from the hairline on top of the forehead to the jawline at the bottom of the cheeks. Facial-VASI (central read) will range from 0.000 to 4.000 by defining the affected Facial Surface Area (expressed as the value between 0.0 to 1.0) being 4% of total Body Surface Area. For example: 25% affected Facial Surface Area (0.25) represents 1% total body surface area (0.25×4). 15% affected Facial Surface Area (0.15) represents 0.6% total body surface area (0.15×4). The extent of depigmentation is expressed by the following percentages: 0, 10%, 25%, 50%, 75%, 90%, or 100%. At 100% depigmentation, no pigment is present; at 90%, specks of pigment are present; at 75%, the depigmented exceeded the pigmented area; at 50%, the depigmented and pigmented areas are equal; at 25%, the pigmented area exceeded the depigmented area; and at 10%, only specks of depigmentation are present. Scalp, neck, eyebrows, eyelashes, and vermilion are excluded from this calculation, although total VASI assessment includes all of these regions.

As for `C=CC(=O)N1C[C@H](Nc2ncnc3[nH]ccc23)CC[C@@H]1C` [Ritlecitinib, 1-[(2S,5R)-2-methyl-5-(7H-pyrrolo[2,3-d]pyrimidin-4-ylamino)-1-piperidinyl]-2-propen-1-one], the “Efficacy criterion for the primary endpoint (% CFB in Central F-VASI at Week 24)” value (initial clinical studies) is given as “met the efficacy criterion for the primary endpoint”. Further, the “Placebo-adjusted LS mean CFB (SE); % CFB in Central F-VASI at Week 24” value runs as follows: (treatment group 10 mg, 24-week treatment period) −4.13%; (treatment group 30 mg, 24-week treatment period) −16.93%; (treatment group 50 mg, 24-week treatment period) −22.05%; (treatment group 100/50 mg (induction 100 mg 4 weeks, maintenance 50 mg 20 weeks)) −22.99%; (treatment group 200/50 mg (induction 200 mg 4 weeks, maintenance 50 mg 20 weeks)) −23.62%.
